Measured values reported in patent US20110236409A1, “O[…] FROM VARIABLE ANTIGENS, T CELL POPULATIONS AND USES THEREOF” (Helmholtz Zentrum München - Deutsches Forschungszentrum für …, priority 2008, published 2011).

Tests used:
Format in all cases: cell-based, human
[1] = test system: T-cell response of HIV-1 infected individuals; assay: Mapping of Tat- and Nef-specific T-cell responses to single VOPSD peptides in cohorts of HIV-1 infected individuals (Elite Controllers)
[2] = test system: Peripheral blood mononuclear cells (PBMC) of HIV-1 infected individuals; assay: Ex vivo ELISPOT assay for single-cell IFN-γ release, HIV-infected individuals; settings: patient HSR-028
Description: Peripheral blood mononuclear cells (PBMC) were seeded in duplicate at 2×10^5 cells/well in 96-well plates (MAIPS4510; Millipore, Bedford, Mass.) precoated with anti-IFN-γ capture monoclonal antibody (B-B1; Diaclone, Besancon, France) and stimulated with the different peptide pools at the fixed concentration of 3 μg/ml of each peptide for 18 h at 37° C. in air plus 5% CO2. Biotinylated anti-IFN-γ detection monoclonal antibody (B-G1; Diaclone) was added for 2 h, followed by the addition of streptavidin-alkaline phosphatase conjugate (Amersham Pharmacia Biotech Europe GmbH, Freiburg, Germany) for 1 h. A chromogenic substrate (nitroblue tetrazolium-BCIP [5-bromo-4-chloro-3-indolylphosphate]; Sigma, St. Louis, Mo.) was added for 10 min. The individual spots were counted by using an Automated ELISA-Spot Assay Video Analysis System, Eli-Scan with the software Eli.Analyse V4.2 (A.EL.VIS, Hannover, Germany).
The responses were empirically scored as positive if the test wells contained a mean number of spot-forming cells (SFC) higher than the mean value plus two standard deviations in negative control wells, and if the number of SFC per million PBMC in stimulated wells (subtracted of the values of negative control wells) was ≧50. PBMC in medium alone were used to establish the negative control background, that had to be not higher than 50 SFC per million of cells (10 SFC/well). […]

[3] = test system: Nef specific CD4 and CD8 T-cells (PBMC); assay: Intracellular cytokine staining (IFN-γ) of CD4 and CD8 T cells, Nef peptides; settings: subject V4; B8 restricted
Description: (§1) After thawing, PBMC were washed trice at room temperature in complete cell culture medium and plated in round bottom 96 wells/plates. All the incubations were carried out in round bottom 96 wells/plates to allow high throughput processing of the probes. 10^6 PBMC/well were incubated with 1.3 μg/ml of antibody to CD28 and with 1.3 μg/ml of antibody to CD49d (Becton Dickinson, Heidelberg, Germany) together with defined peptide pools. For each individual, a sample without peptides was included to calculate the background staining. Following one-hour incubation, 10 μg/ml of Brefeldin A were added to the cell suspension and the incubation carried out for additional 4 hours. Stimulated cells were then resuspended in Stain Buffer (0.2% BSA, 0.09% Na Azide in DPBS; Becton Dickinson) and incubated with the photoreactive fluorescent label ethidium monoazide (EMA; Molecular Probes, Leiden, The Netherlands) used as viability dye. After washing, cells were fixed and permeabilized using the BD Cytofix/Cytoperm™ Kit, (Becton Dickinson). […]
(§2) Following background subtraction, the threshold level was calculated using the 90 percentile of the negative values. […]
In this way, the authors could establish whether the higher number of individual responses measured with the new set of overlapping peptides was restricted to the CD8 compartment or interested also CD4 T-cell recognition.

[4] = test system: CD45RA+ IFN-γ− IL-2− MIP-1β+ CD8 T-cells; assay: Polychromatic intracellular cytokine staining, detection of CD45RA+ IFN-γ− IL-2− MIP-1β+ CD8 T-cells; settings: subject V4
Description: as §1, with “Dickinson). Then, the following fluorochrome-conjugated antibodies were added to the cell suspension: CD3-AmCyan, CD4-PerCP, CD45RA-PECy7, CD154-FITC, IFNγ-A1700, IL2-APC and MIP1β-PE from Becton Dickinson and CD8-PacB from DAKO (Hamburg, Germany).” for “Dickinson).”
as §2

[5] = Controllers Upon Suspension (CUS)

KKCCFHCQVCFITKALGI [peptide 2.5]
individuals recognizing the peptide ([1]; CHI w T): 1/15 | individuals recognizing the peptide [1, 5]: 1/5 | individuals recognizing the peptide ([1]; Elite Controllers (EC)): 4/13 | individuals recognizing the peptide ([1]; LTNP): 1/6

MEPVDPRLEPW [VOPSD Tat peptide 1]
peptide concentration of maximal recognition (single peptide titration) [2]: 0.5 µM

QVCFITKALGISYGR [peptide 2.6]
individuals recognizing the peptide ([1]; CHI w T): 1/15 | individuals recognizing the peptide ([1]; CHI w/o T): 1/13 | individuals recognizing the peptide [1, 5]: 1/5 | individuals recognizing the peptide ([1]; Elite Controllers (EC)): 7/13

VLEWRFDSRLAFHHVAREL [peptide 5.29]
individuals recognizing the peptide ([1]; Elite Controllers (EC)): 7/13 | immunodominant response in groups other than EC ([1]; all other groups of HIV-1 infected individuals): not for any of the all the other groups of HIV-1 infected individuals

EPVDPRLEPWKHPGSQPKTA [20mer homolog, 20mer homolog of VOPSD Tat peptide 1 from the standard Tat 20mer set, reference compound]
peptide concentration of maximal recognition (single peptide titration) [2]: recognized only at the highest concentration tested

LEPWKHPGSQPKTACTNCY [peptide 2.2]
individuals recognizing the peptide ([1]; Elite Controllers (EC)): 5/9

FLKEKGGL
CD8 T-cell response to the epitope [3]: strong CD8 T-cell response | detection of CD45RA+ IFN-γ− IL-2− MIP-1β+ CD8 T-cells [4]: detected
